Data on eight compounds can be found in patent publication US5502166A, “NMDH receptor proteins and genes encoding the same” (Mitsubishi Chemical Corporation, priority 1992, dated 1996).

Like-named read-outs stand apart in the source and are kept apart here.

Experiment [1] concerns ε1/.xi.1, ε2/.xi.1, ε3/.xi.1 and ε4/.xi.1 heteromeric NMDA receptor channels. The experiment in a line: Comparison of ε1/, ε2/, ε3/ and ε4/.xi.1 heteromeric channels in Xenopus oocytes. It counts as cell-based, mouse.
Description: (§6) The oocytes used were obtained from mature female Xenopus and separated into one oocyte in a Barth medium by using sharp tweezers and scissors. The concentration of the mRNAs was 0.1 μg/μl and 10 μl thereof was injected into about 100 oocytes in an amount of 50 to 100 nl per one oocyte. The mRNAs were injected under a microscope by using a capillary and a micromanipulator. After the injection, the oocytes were incubated at 19° C. for one day in a Barth medium containing 0.1 mg/ml of gentamicin ("The Control of Gene Expression in Animal Development, Clarendon, Oxford (1974)). Then, the oocytes were allowed to stand in 1 mg/ml of collagenase at room temperature for 1 hour, and then extracellular skins were removed under a microscope by using sharp tweezers. These oocytes were returned to the Barth medium containing 0.1 mg/ml of gentamicin, incubated again at 19° C. for one day and then used for an electrophysiological test.
(§7) The electrophysiological test was carried out by a conventional micropipet voltage clamp method. […] In the present experiment system, flow of these ions were detected, and opening and closing of the ion channel were observed. […]
For experiment [2], the target named is T1, ε2/.zeta.1 heteromeric NMDA receptor channel (Mus musculus, UniProt P35438+Q01097).
T1 construct: expressed in transfected cells; host or cells: Xenopus oocytes injected with in vitro transcribed mRNAs
The experiment in a line: Electrophysiological test in Xenopus oocytes expressing ε2 and .zeta.1 subunits. The following applies: for response to kainate / AMPA: 100 μM. It is filed as cell-based. How it is done: (§1) Then, by using the pBKSA ε2 cut by NotI and the pBKSA ε3 cut by XbaI as molds and using T3 RNA polymerase produced by BRL Co., ε2-specific mRNAs and ε3-specific mRNAs were synthesized in vitro. Transcription was carried out in the same manner as in Example 1.
(§2) Effects of the competitive antagonist were examined with 10-fold concentration of the antagonist concentration used when examining the EC50 values.
Transcription was carried out in the same manner as in Example 1.

Experiment [3] has as its target ε4/.zeta.1 heteromeric NMDA receptor channel (Mus musculus, UniProt P35438+Q03391). The experiment can be described thus: Electrophysiological test in Xenopus oocytes expressing ε4 and .zeta.1 subunits. It is filed as cell-based. How it is done: FIGS. 1(a) and 1(b) show functional expression of ε4/.zeta.1 heteromeric NMDA receptor channel cDNAs in frog oocytes. Current responses are measured at -70 mV membrane potential in normal Ringer's solution. […] FIG. 1(b) represent effects of 500 μM D-2-amino-5-phosphonovalerate (APV) (Glu/Gly +APV) and 100 μM 7-chlorokynurenate (7 CK) (Glu/Gly +7 CK) on a current response of the ε4/.zeta.1 heteromeric channel to Glu/Gly, respectively.
Current responses are measured at -70 mV membrane potential in a Ba^2+ -Ringer's solution.
Then, by using the pSPGR ε4 plasmid cut by EcoRI as a template and using SP6 RNA polymerase, ε4-specific mRNAs were synthesized in vitro. Transcription was carried out in the same manner as in Example 1.

Experiment [4] addresses ε3/.zeta.1 heteromeric NMDA receptor channel (Mus musculus, UniProt P35438+Q01098). The experiment in a line: Electrophysiological test in Xenopus oocytes expressing ε3 and .zeta.1 subunits. It counts as cell-based. The note with it: for response to kainate / AMPA: 100 μM. How it is done: as §1, §2
For experiment [5], the system named is ε1/.xi.1, ε2/.xi.1 and ε3/.xi.1 heteromeric NMDA receptor channels. The experiment in a line: Comparison of ε1/, ε2/ and ε3/.xi.1 heteromeric channels in Xenopus oocytes. The following applies: 10-fold concentration used when examining EC50. It is filed as cell-based, mouse.
Text: as §2

Experiment [6] relates to ε2/.zeta.1-N598Q NMDA receptor channel. The experiment in a line: Electrophysiological test in Xenopus oocytes expressing modified ε2/.zeta.1-N598Q channel. It is filed as cell-based, mouse. From the text:
(§3) In the figures, FIGS. 4(a), 4(b), 4(c) and 4(d) represent an ε2/.zeta.1 NMDA receptor channel, an ε2/.zeta.1-N598Q (a modified glutamate receptor shown in Sequence ID No. 9 of the sequence table) NMDA receptor channel, an ε2-N589Q (a modified glutamate receptor shown in Sequence ID No. 8 of the sequence table)/.zeta.l NMDA receptor channel and an ε2-N589Q/.zeta.1-N598Q NMDA receptor channel, respectively.
(§4) FIGS. 5(a) to 5(d) show current-voltage relationships of wild type and mutant heteromeric channels in the presence of 1 mM Mg^2+ ( ) and in the absence thereof (.smallcircle.). In the figures, FIGS. 5(a) , 5(b) , 5(c) and 5(d) represent an ε2/.zeta.1 NMDA receptor channel, an ε2/.zeta.1-N598Q NMDA receptor channel, an ε2-N589Q/.zeta.1 NMDA receptor channel and an ε2-N589Q/.zeta.1-N598Q NMDA receptor channel, respectively.
(§5) In the figure, .largecircle., , , .quadrature. and represent an ε2/.zeta.1 NMDA receptor channel, an ε2/.zeta.1-N598Q NMDA receptor channel, an ε2-N589Q/.zeta.1 NMDA receptor channel, an ε2-N589Q/.zeta.1-N598Q NMDA receptor channel and an ε2/.zeta.1-ZAZ (a mutant glutamate receptor shown in Sequence ID No. 10 of the sequence table) NMDA receptor channel, respectively. […]

Experiment [7] has as its system ε2-N589Q/.zeta.1 NMDA receptor channel. The experiment in a line: Electrophysiological test in Xenopus oocytes expressing modified ε2-N589Q/.zeta.1 channel. It is filed as cell-based, mouse.
Text: as §3, §4, §5

Experiment [8] deals with ε2-N589Q/.zeta.1-N598Q NMDA receptor channel. The experiment in a line: Electrophysiological test in Xenopus oocytes expressing modified ε2-N589Q/.zeta.1-N598Q channel. It is filed as cell-based, mouse.
Text: as §3, §4, §5

The next experiment deals with ε3 subunit. The experiment in a line: Electrophysiological test in Xenopus oocytes expressing only the ε3 subunit. It counts as cell-based, mouse. The following applies: ε3 mRNA alone.
Experiment [9] has as its target T2, ε1/.zeta.1 heteromeric NMDA receptor channel (Mus musculus, UniProt P35436+P35438).
T2 construct: expressed in transfected cells; host or cells: Xenopus oocytes injected with in vitro transcribed mRNAs
The experiment in a line: Electrophysiological test (micropipet voltage clamp) in Xenopus oocytes expressing ε1 and .zeta.1 subunits. It counts as cell-based.
Text: as §2

Another experiment concerns ε2 subunit. The experiment can be described thus: Electrophysiological test in Xenopus oocytes expressing only the ε2 subunit. It is filed as cell-based, mouse. The note with it: ε2 mRNA alone.
In a further experiment the test system is ε1 subunit. The experiment in a line: Electrophysiological test in Xenopus oocytes expressing only the ε1 subunit. It counts as cell-based, mouse. The following applies: 10 μM L-glutamate and 100 μM NMDA, even in the presence of 10 μM glycine.
Experiment [10] concerns the target .zeta.1 NMDA type receptor subunit (Mus musculus, UniProt P35438). The experiment in a line: Electrophysiological test in Xenopus oocytes expressing only the .zeta.1 subunit. The following applies: 100 μM NMDA and 10 μM glycine, n=7.
Description: Then, by using the pBKSA ε1 cut by NotI as a template and using T3 RNA polymerase produced by BRL Co., ε1-specific mRNAs were synthesized in vitro. Transcription was carried out in a solution containing ATP, TTP and CTP at a concentration of 0.5 mM, respectively and 0.1 mM GTP in the presence of 0.5 mM dinucleotide 7mGpppG having a cap structure (in which 2 Gs were linked at 5' and 7-site of one guanine was methylated, produced by P-L Biochemicals Co.). One or both of ε1 subunit-specific mRNAs and .zeta.1.NMDA type glutamate receptor subunit-specific mRNAs (mRNAs derived from mice, coding an amino acid sequence different in the 213rd (Glu→Asp) and the 460th (Ile→Val) from the N terminal end from the amino acid sequence which is coded by cDNA.-NMDA R1 of a rat-NMDA type glutamate receptor cloned by Nakanishi et al. ("Nature", 354, pp. 31 to 37 (1991))) were injected into Xenopus oocytes.
as §6
The electrophysiological test was carried out by a conventional micropipet voltage clamp method. […] First, while a frog standard Ringer's solution (115 mM NaCl, 2.5 mM KCl, 1.8 mM CaCl2 and 10 mM HEPES-NaOH (pH: 7.2)) was flown in a chamber, 2 glass microelectrodes charged with 3M KCl were stuck in the oocytes, and the membrane potential was fixed to -70 mV. In these oocytes, an agonist (NMDA) is linked to a glutamate receptor expressed on a cell membrane and an ion channel is opened, the oocytes have an action of returning membrane potential to an original value, whereby inflow and outflow of ions are caused. In the present experiment system, flow of these ions were detected, and opening and closing of the ion channel were observed.
The ε1 subunit-specific mRNAs synthesized from the cloned cDNAs in vitro were injected into the Xenopus oocytes. […]
[11] abbreviates: (+)-MK-801, continuous application.
The mark [12] stands for this setting: Ba^2+ Ringer's solution, dose-reaction curve.

T2 sequence (P35436 23-1464 S384R, other chains not shown): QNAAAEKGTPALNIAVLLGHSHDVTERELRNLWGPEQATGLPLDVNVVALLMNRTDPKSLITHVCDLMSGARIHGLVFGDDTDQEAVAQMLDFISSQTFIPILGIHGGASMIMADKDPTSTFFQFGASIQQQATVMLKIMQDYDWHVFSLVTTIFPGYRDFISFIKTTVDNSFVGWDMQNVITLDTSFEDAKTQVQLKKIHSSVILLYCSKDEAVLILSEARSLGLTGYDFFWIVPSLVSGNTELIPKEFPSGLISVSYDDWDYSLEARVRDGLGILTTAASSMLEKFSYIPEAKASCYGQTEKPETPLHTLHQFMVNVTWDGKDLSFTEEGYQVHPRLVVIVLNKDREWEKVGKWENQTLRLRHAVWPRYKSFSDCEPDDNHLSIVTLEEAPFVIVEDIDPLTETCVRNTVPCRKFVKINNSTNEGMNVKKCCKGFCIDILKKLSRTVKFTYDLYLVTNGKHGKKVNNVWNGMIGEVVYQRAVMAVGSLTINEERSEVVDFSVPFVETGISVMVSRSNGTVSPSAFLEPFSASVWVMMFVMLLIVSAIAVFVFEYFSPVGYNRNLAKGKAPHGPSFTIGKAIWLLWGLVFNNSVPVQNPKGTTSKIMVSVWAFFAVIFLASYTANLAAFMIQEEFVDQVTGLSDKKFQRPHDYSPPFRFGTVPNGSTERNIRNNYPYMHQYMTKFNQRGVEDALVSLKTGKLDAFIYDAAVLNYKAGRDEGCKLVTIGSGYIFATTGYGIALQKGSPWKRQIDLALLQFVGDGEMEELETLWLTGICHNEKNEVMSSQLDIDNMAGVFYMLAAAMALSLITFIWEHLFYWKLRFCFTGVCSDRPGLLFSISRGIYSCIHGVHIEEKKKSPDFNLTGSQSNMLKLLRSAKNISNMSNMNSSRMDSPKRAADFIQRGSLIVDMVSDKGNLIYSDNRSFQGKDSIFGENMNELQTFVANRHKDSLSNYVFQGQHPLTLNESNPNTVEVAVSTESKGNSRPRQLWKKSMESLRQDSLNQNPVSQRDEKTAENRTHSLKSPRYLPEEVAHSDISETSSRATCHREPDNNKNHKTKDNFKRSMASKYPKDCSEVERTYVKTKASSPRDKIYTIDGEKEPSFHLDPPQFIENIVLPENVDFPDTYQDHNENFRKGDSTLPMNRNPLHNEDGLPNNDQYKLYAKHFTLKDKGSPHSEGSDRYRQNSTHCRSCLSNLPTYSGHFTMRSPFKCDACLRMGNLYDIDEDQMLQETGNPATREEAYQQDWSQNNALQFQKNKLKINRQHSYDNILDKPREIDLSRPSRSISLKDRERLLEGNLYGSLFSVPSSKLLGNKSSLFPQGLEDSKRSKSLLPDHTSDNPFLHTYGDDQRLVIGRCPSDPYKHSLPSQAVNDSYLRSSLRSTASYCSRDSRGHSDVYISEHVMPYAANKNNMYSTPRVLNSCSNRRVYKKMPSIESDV
Chain of ε4/.zeta.1 heteromeric NMDA receptor channel (Q03391 28-1323, other chains not shown): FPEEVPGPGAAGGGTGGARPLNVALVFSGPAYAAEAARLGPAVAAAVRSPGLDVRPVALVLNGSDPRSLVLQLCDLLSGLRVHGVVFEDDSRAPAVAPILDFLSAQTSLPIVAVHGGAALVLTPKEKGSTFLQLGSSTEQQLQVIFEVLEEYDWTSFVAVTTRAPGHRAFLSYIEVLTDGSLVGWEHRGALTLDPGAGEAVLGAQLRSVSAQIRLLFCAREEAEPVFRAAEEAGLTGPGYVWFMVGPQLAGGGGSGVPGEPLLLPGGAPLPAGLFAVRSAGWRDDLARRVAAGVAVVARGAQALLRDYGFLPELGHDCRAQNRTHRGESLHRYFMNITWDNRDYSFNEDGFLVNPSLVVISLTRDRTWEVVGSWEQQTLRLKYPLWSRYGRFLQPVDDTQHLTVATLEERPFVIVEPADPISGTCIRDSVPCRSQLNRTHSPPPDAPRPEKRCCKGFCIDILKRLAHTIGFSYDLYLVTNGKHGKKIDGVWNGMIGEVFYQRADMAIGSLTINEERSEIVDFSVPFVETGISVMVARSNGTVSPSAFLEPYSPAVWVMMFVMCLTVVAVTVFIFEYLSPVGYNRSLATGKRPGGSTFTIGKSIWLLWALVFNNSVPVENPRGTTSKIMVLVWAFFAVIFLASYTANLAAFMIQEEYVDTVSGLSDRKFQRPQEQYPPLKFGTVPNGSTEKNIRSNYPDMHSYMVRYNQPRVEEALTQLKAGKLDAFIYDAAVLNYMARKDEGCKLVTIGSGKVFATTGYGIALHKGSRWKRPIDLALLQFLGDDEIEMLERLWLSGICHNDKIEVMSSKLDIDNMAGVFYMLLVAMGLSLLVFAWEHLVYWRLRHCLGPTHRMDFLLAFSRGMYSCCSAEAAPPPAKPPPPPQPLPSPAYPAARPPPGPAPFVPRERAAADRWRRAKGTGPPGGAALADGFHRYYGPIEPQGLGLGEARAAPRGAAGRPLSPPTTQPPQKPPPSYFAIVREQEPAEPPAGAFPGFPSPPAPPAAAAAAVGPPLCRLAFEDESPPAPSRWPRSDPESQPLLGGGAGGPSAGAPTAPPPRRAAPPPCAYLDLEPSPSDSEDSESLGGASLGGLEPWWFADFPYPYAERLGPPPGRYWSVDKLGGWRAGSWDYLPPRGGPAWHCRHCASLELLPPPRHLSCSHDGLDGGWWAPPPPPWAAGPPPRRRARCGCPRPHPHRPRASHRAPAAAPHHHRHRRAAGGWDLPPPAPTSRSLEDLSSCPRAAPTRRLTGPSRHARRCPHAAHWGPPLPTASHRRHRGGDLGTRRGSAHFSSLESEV
Chain of ε3/.zeta.1 heteromeric NMDA receptor channel (Q01098 20-1239, other chains not shown): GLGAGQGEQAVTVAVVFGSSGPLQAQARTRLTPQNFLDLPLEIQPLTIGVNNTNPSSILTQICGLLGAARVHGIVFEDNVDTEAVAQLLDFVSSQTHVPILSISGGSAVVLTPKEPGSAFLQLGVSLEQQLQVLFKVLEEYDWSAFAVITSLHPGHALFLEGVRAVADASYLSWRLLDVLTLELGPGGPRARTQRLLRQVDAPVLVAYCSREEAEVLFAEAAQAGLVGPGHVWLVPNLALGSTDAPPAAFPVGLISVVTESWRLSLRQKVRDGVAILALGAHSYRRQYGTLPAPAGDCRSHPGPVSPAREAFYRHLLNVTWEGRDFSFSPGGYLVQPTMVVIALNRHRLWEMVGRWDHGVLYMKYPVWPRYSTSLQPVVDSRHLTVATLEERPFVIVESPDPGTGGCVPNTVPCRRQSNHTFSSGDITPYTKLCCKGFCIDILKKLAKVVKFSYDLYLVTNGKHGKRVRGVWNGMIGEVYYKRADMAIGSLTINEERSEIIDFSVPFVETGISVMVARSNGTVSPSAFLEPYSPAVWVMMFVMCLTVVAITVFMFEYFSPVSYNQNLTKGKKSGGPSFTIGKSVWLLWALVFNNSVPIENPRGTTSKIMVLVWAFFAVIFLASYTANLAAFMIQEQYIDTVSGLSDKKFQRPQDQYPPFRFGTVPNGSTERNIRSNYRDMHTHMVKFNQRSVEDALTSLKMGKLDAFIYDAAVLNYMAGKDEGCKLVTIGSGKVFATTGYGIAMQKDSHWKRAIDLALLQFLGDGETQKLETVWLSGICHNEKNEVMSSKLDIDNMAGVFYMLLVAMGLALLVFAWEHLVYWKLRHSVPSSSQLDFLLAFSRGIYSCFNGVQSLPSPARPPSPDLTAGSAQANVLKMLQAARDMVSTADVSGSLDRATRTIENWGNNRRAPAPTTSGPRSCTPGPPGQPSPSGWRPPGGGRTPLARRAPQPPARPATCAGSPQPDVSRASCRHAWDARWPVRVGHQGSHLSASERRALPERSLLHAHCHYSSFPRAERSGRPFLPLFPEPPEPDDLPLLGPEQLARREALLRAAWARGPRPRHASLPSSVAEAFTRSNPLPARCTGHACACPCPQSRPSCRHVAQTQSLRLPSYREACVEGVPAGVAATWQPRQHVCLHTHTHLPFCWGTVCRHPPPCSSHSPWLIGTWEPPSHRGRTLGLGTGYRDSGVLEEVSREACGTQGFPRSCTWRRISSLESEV
Description for ε1 subunit: One or both of ε1 subunit-specific mRNAs and .zeta.1.NMDA type glutamate receptor subunit-specific mRNAs (mRNAs derived from mice, coding an amino acid sequence different in the 213rd (Glu→Asp) and the 460th (Ile→Val) from the N terminal end from the amino acid sequence which is coded by cDNA.-NMDA R1 of a rat-NMDA type glutamate receptor cloned by Nakanishi et al. ("Nature", 354, pp. 31 to 37 (1991))) were injected into Xenopus oocytes.
The oocytes used were obtained from mature female Xenopus and separated into one oocyte in a Barth medium by using sharp tweezers and scissors. The concentration of the mRNAs was 0.1 μg/μl and 10 μl thereof was injected into about 100 oocytes in an amount of 50 to 100 nl per one oocyte. The mRNAs were injected under a microscope by using a capillary and a micromanipulator. After the injection, the oocytes were incubated at 19° C. for one day in a Barth medium containing 0.1 mg/ml of gentamicin ("The Control of Gene Expression in Animal Development, Clarendon, Oxford (1974)). […]
as §7
Description for ε2 subunit: as §6
(§8) The electrophysiological test was carried out by a conventional micropipet voltage clamp method. Oocytes generally have a membrane potential of about -30 to -40 mV. […] In the present experiment system, flow of these ions were detected, and opening and closing of the ion channel were observed. […]
Description for ε3 subunit: as §6, §8

Regarding `O=C(O)c1cc(O)c2ccc(Cl)cc2n1` [7 CK, 7-chlorokynurenate], in experiment [1] (10-fold concentration of EC50 value), the “order of sensitivity to competitive antagonist” value was “ε3/.xi.1>ε2/.xi.1>ε1/.xi.1=ε4/.xi.1”. In addition, the “effect on response to 10 μM L-glutamate and 10 μM glycine” value was “suppressed” in experiment [2]; “suppressed” in [3] (500 μM APV or 100 μM 7 CK); “suppressed” in experiment [4] (competitive antagonists, 100 μM Mg^2+, 100 μM Zn^2+, 1 μM (+)-MK-801). Moreover, the “effect on response to 10 μM L-glutamate or 10 μM glycine alone” value in [2] is “disappeared”; in [4] (100 μM APV, 30 μM 7 CK) it was “disappeared”. For the same compound, the “decrease of channel activity” value in experiment [3] (100 μM APV or 3 μM 7 CK, response to 4.7 μM L-glutamate + 0.9 μM glycine, Ba^2+ Ringer's solution, -70 mV) is on record as 34%. Also, the degree of inhibition result in [3] (compared with other ε/.xi. channels under the same conditions) is “smaller than those of the other ε/.xi. channels”. Besides, the “order of strength in sensitivity to competitive antagonist” value in experiment [5] was “ε3/.xi.1>ε2/.xi.1>ε1/.xi.1”.
Consider `C[C@]12N[C@H](Cc3ccccc31)c1ccccc12` [(+)-MK-801], for which the “effect on response to 10 μM L-glutamate and 10 μM glycine” value in experiment [2] and in experiment [4] was “suppressed” throughout. The “inhibition of current response” value in experiment [2] is “strongly inhibited”; in experiment [6] (1 mM Mg^2+, 100 μM Zn^2+, 1 μM (+)-MK-801, frog standard Ringer's, -70 mV, 10 μM L-glutamate + 10 μM glycine), “suppressed effectively”. In addition, the “suppression after repetitive application” value in [2] is “suppressed almost completely”; in experiment [6] (setting [11]), “strongly inhibited”; in experiment [7] (setting [11]) it was “strongly inhibited”; in [8] ((+)-MK-801 applied three times repeatedly), “retained high activities”. Further, in experiment [7] (Mg^2+, Zn^2+, repetitive (+)-MK-801, frog standard Ringer's, -70 mV, 10 μM L-glutamate + 10 μM glycine), the “sensitivity to inhibition / current response” value is listed as “showed a great current response after repetitive application of (+)-MK-801”. Further, the “resistance / sensitivity to inhibition” value in experiment [8] (Mg^2+, Zn^2+, (+)-MK-801, frog standard Ringer's, -70 mV, 10 μM L-glutamate + 10 μM glycine) is on record as “strong resistance”.
On to `Cc1onc(O)c1CC(N)C(=O)O` (centres unmarked) [AMPA], for which the “response to kainate / AMPA” value in experiment [2] and in [4] was “less than the measurement limit” each time.
For the compound `N[C@@H](CC(=O)O)C(=O)O` [L-aspartic acid], in experiment [2], the “response to agonist alone” value is listed as “showed a response”.
Broadly, the EC50 is the concentration that produces a half-maximal response. For `N[C@@H](CCC(=O)O)C(=O)O` [L-glutamate], the “response of oocytes injected singly” value in the experiment on ε3 subunit and with ε2 subunit was under 1 nA each time. In addition, the EC50 in experiment [9] turned out to be 1700 nM.
`CN[C@H](CC(=O)O)C(=O)O` [NMDA, N-methyl-D-aspartic acid]: the “response of oocytes injected singly” value with ε3 subunit and in the experiment with ε2 subunit was under 1 nA in each case. Also, the “reaction of injected oocytes” value in the experiment with ε1 subunit is “did not show any reaction”. Moreover, the inward current in experiment [2] was determined as 546±172 nA; in [3] (100 μM NMDA and 10 μM glycine, frog standard Ringer's solution, -70 mV, n=8), 68±13 nA; in experiment [9] (100 μM NMDA and 10 μM glycine, frog standard Ringer's solution, -70 mV, n=7), 175±30 nA; in experiment [4] it was 89±22 nA. Moreover, the current amplitude is recorded as 1±0.2 nA in experiment [10] (Ba^2+ Ringer's solution); 6±1 nA in experiment [10] (Example 1, frog standard Ringer's solution, -70 mV); 9±2 nA in [10] (Example 2); 13±2 nA in [10] (Example 3); 57±3 nA in experiment [9] (100 μM NMDA and 10 μM glycine, Ba^2+ Ringer's solution, n=7).
Usually Hill coefficient stands for a measure of the steepness of the concentration-response curve. Turning to `NCC(=O)O` [glycine], the “order of strength in affinity to agonist” value in experiment [1] (Ba^2+ Ringer's solution) was “ε4/.xi.1>ε3/.xi.1>ε2/.xi.1”. Further, the entries for the “response to agonist alone” value in [2] and in experiment [4] were “showed a response” and “showed a response only to 10 μM glycine”, respectively. Also, the EC50 in experiment [2] (setting [12]) was determined as 300 nM; in [3], 90 nM; in experiment [9] (Ba^2+ Ringer's solution, dose-reaction curve, read-out: EC50), 2100 nM; in experiment [4] (setting [12]), 200 nM. This compound gave a Hill coefficient in [3] (Ba^2+ Ringer's solution, -70 mV) of 1.2.
`C=C(C)[C@H]1CN[C@H](C(=O)O)[C@H]1CC(=O)O` [kainate]: the “response to kainate / AMPA” value in experiment [2] and in experiment [4] was “less than the measurement limit” throughout.
